Test results reported in patent publication US20050080060A1, “Antigestagenically active steroids with a fluorinated 17alpha-alkyl chain” (priority 1997, published 2005).

What was measured:
Type in all cases: in vivo, rat
rats = assay: Abortive test on rats s.c. and p.o.
Description: (§1) The tests below were all performed on rats according to known methods.
Abortive test s.c. and p.o.: See, for example, EP-A 0 283 428.

uterus weight = assay: Uterus growth test on rats p.o. for estrogenic action; settings: ovariectomized rats, 3-day treatment
Protocol: The tests below were all performed on rats according to known methods. Uterus growth test p.o. for estrogenic action: Stimulation of uterus weight with the test compound, vehicle: s.c. benzylbenzoate/castor oil (1+4); p.o. NaCl-myrj; 3-day treatment of ovariectomized animals; parameters: uterus weight and endometrial epithelium height; vaginal smear negative; reference compound: estradiol 0.1 μg.

[1] = system: dexamethasone-induced thymus suppression; assay: Antithymolysis test on rats p.o. on antiglucocorticoid action
Description: The tests below were all performed on rats according to known methods. Antithymolysis test p.o. on antiglucocorticoid action: See, for example, EP-A 0 283 428.

prostate weight = assay: Androgen test on rats p.o. (stimulation of the prostate weight)
Protocol: as §1
Androgen test p.o.: Stimulation of the prostate weight with the test compound, vehicle: s.c. benzylbenzoate, castor oil (1+4); p.o. NaCl-myrj; reference compound testosterone propionate. Virtually no stimulation of the prostate weight is observed up to a dose of 10 mg of test compound/animal/day.

Compound	Abortive test on rats p.o. (n abortion/n total) (rats; dose 0.003 mg/animal/day)	Abortive test on rats p.o. (n abortion/n total) (rats; dose 0.01 mg/animal/day)	Abortive test on rats p.o. (n abortion/n total) (rats; dose 0.03 mg/animal/day)	Abortive test on rats p.o. (n abortion/n total) (rats; dose 0.1 mg/animal/day)	Abortive test on rats p.o. (n abortion/n total) (rats; dose 0.3 mg/animal/day)	Abortive test on rats s.c. (n abortion/n total) (rats; dose 0.03 mg/animal/day)	Abortive test on rats s.c. (n abortion/n total) (rats; dose 0.1 mg/animal/day)	Abortive test on rats s.c. (n abortion/n total) (rats; dose 0.3 mg/animal/day)	Uterus growth test on rats p.o. (% uterus weight stimulation) (uterus weight; dose 10 mg/animal/day)	Antithymolysis test on rats p.o. (% elimination of dexamethasone-induced thymus suppression) ([1]; dose 2.2 mg/animal/day)	Antithymolysis test on rats p.o. (% elimination of dexamethasone-induced thymus suppression) ([1]; dose 6.7 mg/animal/day)	Antithymolysis test on rats p.o. (% elimination of dexamethasone-induced thymus suppression) ([1]; dose 22 mg/animal/day)	Androgen test on rats p.o. (% prostate stimulation) (prostate weight; dose 1 mg/animal/day)	Androgen test on rats p.o. (% prostate stimulation) (prostate weight; dose 3 mg/animal/day)	Antithymolysis test on rats p.o. (% elimination of dexamethasone-induced thymus suppression) ([1]; dose 1 mg/animal/day)	Antithymolysis test on rats p.o. (% elimination of dexamethasone-induced thymus suppression) ([1]; dose 3 mg/animal/day)	Antithymolysis test on rats p.o. (% elimination of dexamethasone-induced thymus suppression) ([1]; dose 10 mg/animal/day)	Androgen test on rats p.o. (% prostate stimulation) (prostate weight; dose 10 mg/animal/day)	Uterus growth test on rats p.o. (% uterus weight stimulation) (uterus weight; dose 3 mg/animal/day)
6′-Acetyl-9,11α-dihydro-17β-hydroxy-17α-(1,1,2,2,2-pentafluoroethyl)-4′H-naphth[3′,2′,1′:10,9,11]estr-4-en-3-one [Compound C]	(4/4)	(4/4)	(4/4)	(4/4)	(4/4)	(4/4)	(4/4)	(4/4)	(4.4) %	(7.2) %	(31.6) %	(18.8) %	–	–	–	–	–	–	–
CC(=O)c1ccc([C@H]2C[C@@]3(C)[C@@H](CC[C@@]3(O)C(F)(F)C(F)(F)F)[C@@H]3CCC4=CC(=O)CCC4=C32)cc1 [B, 11β-(4-Acetylphenyl)-17β-hydroxy-17α-(1,1,2,2,2-pentafluoroethyl)estra-4,9-dien-3-one]	–	–	(4/4)	(4/4)	(4/4)	(4/4)	(4/4)	(4/4)	(2.6) %	–	–	–	(2.1) %	(0) %	(1.2) %	(21.6) %	(18.2) %	–	–
CC(=O)c1ccc(C2CC3(C)C(CCC3(O)C(F)(F)C(F)(F)F)C3CCC4=CC(=O)CCC4C23)cc1 (stereo not drawn) [Compound A, 11β-(4-Acetylphenyl)-17β-hydroxy-17α-(1,1,2,2,2-pentafluoroethyl)estr-4-en-3-one]	–	–	(4/4)	(4/4)	(4/4)	(4/4)	(4/4)	(4/4)	(3.7) %	–	–	–	(4.8) %	(3.3) %	(6.0) %	(7.4) %	(11.5) %	–	–
CC#C[C@]1(O)CC[C@H]2[C@@H]3CCC4=CC(=O)CCC4=C3[C@@H](c3ccc(N(C)C)cc3)C[C@@]21C [D, 11β-[4-(Dimethylamino)phenyl]-17β-hydroxy-17α-(1-propinyl)estra-4,9-dien-3-one, reference compound]	–	–	–	–	–	–	–	–	(6.4) %	–	–	–	(1.6) %	(2.9) %	(19) %	(79) %	(76) %	(7.2) %	–
C=C1CCOC12CCC1C3CCC4=CC(=O)CCC4=C3C(c3ccc(C(C)=O)cc3)CC12C (stereo not drawn) [E, 11β-(4-Acetylphenyl)-19,24-dinor-17,23-epoxy-17α-chola-4,9,20-trien-3-one, reference compound]	–	–	(0/4)	(4/4)	(4/4)	(0/4)	(3/4)	(4/4)	(2.4) %	–	–	–	(4.0) %	(5.6) %	(4.3) %	(19.1) %	(44.7) %	(4.4) %	(1.3) %
